# Reference: patent publication US20240158446A1, “CYCLIC COMPOUND HAVING SELECTIVE INHIBITORY ACTION ON KRAS OVER HRAS AND NRAS” (CHUGAI SEIYAKU KABUSHIKI KAISHA, priority 2021, published 2024)
# Tests used:
# [1] = molecular target: GDP-bound HRAS wild-type protein (Homo sapiens, UniProt P01112); test: Binding to HRAS by surface plasmon resonance (SPR), Single Cycle Kinetics; settings: SPR KD ratio HRAS/KRAS, class symbols
# [2] = molecular target: GDP-bound KRAS wild-type protein (Homo sapiens, UniProt P01116); test: Binding to KRAS by surface plasmon resonance (SPR), Single Cycle Kinetics; settings: SPR Single Cycle Kinetics, GDP-bound KRAS wild-type protein, 1:1 binding model; read-out: KRAS KD
# GDP-bound KRAS wild-type protein, sequence (P01116 whole entry): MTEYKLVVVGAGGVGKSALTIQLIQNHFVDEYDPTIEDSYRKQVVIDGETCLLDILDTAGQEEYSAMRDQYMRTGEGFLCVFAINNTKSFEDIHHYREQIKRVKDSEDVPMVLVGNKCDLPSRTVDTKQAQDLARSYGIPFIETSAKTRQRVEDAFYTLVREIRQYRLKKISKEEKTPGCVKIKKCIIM
# [3] = molecular target: GDP-bound NRAS wild-type protein (Homo sapiens, UniProt P01111); test: Binding to NRAS by surface plasmon resonance (SPR), Single Cycle Kinetics; settings: SPR KD ratio NRAS/KRAS, class symbols
# GDP-bound NRAS wild-type protein, sequence (P01111 whole entry): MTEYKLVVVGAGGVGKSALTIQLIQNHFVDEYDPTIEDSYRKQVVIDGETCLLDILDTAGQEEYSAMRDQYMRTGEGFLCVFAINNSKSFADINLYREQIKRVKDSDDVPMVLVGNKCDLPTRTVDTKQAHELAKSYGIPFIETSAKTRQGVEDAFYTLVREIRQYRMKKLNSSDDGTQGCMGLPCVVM
# [4] = system: human lung cancer strain NCI-H441;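 also: cell proliferation inhibition after four days measured by CellTiter-Glo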
# GDP-bound HRAS wild-type protein, sequence (P01112 whole entry): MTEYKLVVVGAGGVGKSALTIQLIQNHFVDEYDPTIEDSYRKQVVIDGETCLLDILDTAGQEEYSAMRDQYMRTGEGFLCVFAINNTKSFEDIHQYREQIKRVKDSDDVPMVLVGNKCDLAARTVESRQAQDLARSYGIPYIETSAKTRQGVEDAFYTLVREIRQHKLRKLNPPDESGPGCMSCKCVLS
Kd [2],IC50 [4],Compound,HRAS/KRAS (ratio of KD value with respect to GDP-bound HRAS wild-type protein to KD value with respect to KRAS) [1],NRAS/KRAS (ratio of KD value with respect to GDP-bound NRAS wild-type protein to KD value with respect to KRAS) [3]
0.27 nM,12.1 nM,CCC[C@H]1C(=O)N[C@@H]([C@@H](C)CC)C(=O)N(C2CC2)CC(=O)N(C)[C@H]2C/C=C\CCN(C2=O)[C@@H](Cc2ccc(C)cc2)C(=O)N(C)CC(=O)N[C@@H](CCc2cc(F)c(C(F)(F)F)c(F)c2)C(=O)N2C[C@H](OC3CCC3)C[C@H]2C(=O)NC2(CC(C)(C)C2)C(=O)N(C)[C@@H](C2CCCC2)C(=O)N(C)[C@H](C(=O)N(C)C)CC(=O)N1C [PP2614],A (a compound having 10 or more and less than 20 is denoted as A),A (a compound having 10 or more and less than 20 is denoted as A)
2 nM,88.7 nM,CCC(CC)[C@H]1C(=O)N(C)[C@H](C(=O)N(C)C)CC(=O)N(C)[C@@H](COC)C(=O)N[C@@H]([C@@H](C)CC)C(=O)N(C2CC2)CC(=O)N(C)[C@H]2C/C=C\CCN(C2=O)[C@@H](CC2CCC(F)(F)CC2)C(=O)N(C)CC(=O)N[C@@H](CCc2cc(F)c(C(F)(F)F)c(F)c2)C(=O)N2C[C@H](OC3CCC3)C[C@H]2C(=O)NC2(CC(C)(C)C2)C(=O)N1C [PP2615],A (a compound having 10 or more and less than 20 is denoted as A),A (a compound having 10 or more and less than 20 is denoted as A)
0.8 nM,66.4 nM,CCC[C@H]1C(=O)N[C@@H]([C@@H](C)CC)C(=O)N(C2CC2)CC(=O)N(C)[C@H]2C/C=C\CCN(C2=O)[C@@H](Cc2ccc(C)cc2)C(=O)N(C)CC(=O)N[C@@H](CCc2ccc(Cl)c(Cl)c2)C(=O)N2C[C@H](OC3CCC3)C[C@H]2C(=O)NC2(CC(C)(C)C2)C(=O)N(C)[C@@H](C2CCCC2)C(=O)N(C)[C@H](C(=O)N(C)C)CC(=O)N1C [PP2616],A (a compound having 10 or more and less than 20 is denoted as A),A (a compound having 10 or more and less than 20 is denoted as A)
1.4 nM,69.5 nM,CC[C@H](C)[C@@H]1NC(=O)[C@H](COC)N(C)C(=O)C[C@@H](C(=O)N(C)C)N(C)C(=O)[C@H](C2CCCC2)N(C)C(=O)C2(CC(C)(C)C2)NC(=O)[C@@H]2C[C@@H](OC3CCC3)CN2C(=O)[C@H](CCc2cc(F)c(C(F)(F)F)c(F)c2)NC(=O)CN(C)C(=O)[C@H](CC2CCCCC2)N2CC/C=C\C[C@@H](C2=O)N(C)C(=O)CN(C2CC2)C1=O [PP2618],A (a compound having 10 or more and less than 20 is denoted as A),A (a compound having 10 or more and less than 20 is denoted as A)
1.2 nM,132 nM,CCC(CC)[C@H]1C(=O)N(C)[C@H](C(=O)N(C)C)CC(=O)N(C)[C@@H](COC)C(=O)N[C@@H]([C@@H](C)CC)C(=O)N(C2CC2)CC(=O)N(C)[C@H]2C/C=C\CCN(C2=O)[C@@H](Cc2ccc(C)cc2)C(=O)N(C)CC(=O)N[C@@H](CCc2cc(F)c(C(F)(F)F)c(F)c2)C(=O)N2C[C@H](OC3CCCC3)C[C@H]2C(=O)NC2(CC(C)(C)C2)C(=O)N1C [PP2619],A (a compound having 10 or more and less than 20 is denoted as A),AA (a compound having 20 or more is denoted as AA)
0.53 nM,43.8 nM,CC[C@H](C)[C@@H]1NC(=O)[C@H](COC)N(C)C(=O)C[C@@H](C(=O)N(C)C)N(C)C(=O)[C@H](C2CCCC2)N(C)C(=O)C2(CC(C)(C)C2)NC(=O)[C@@H]2C[C@@H](OC3CCC3)CN2C(=O)[C@H](CCc2cc(F)c(C(F)(F)F)c(F)c2)NC(=O)CN(C)C(=O)[C@H](CC2CCC(F)(F)CC2)N2CC/C=C\C[C@@H](C2=O)N(C)C(=O)CN(C2CC2)C1=O [PP2622],B (a compound having 3 or more and less than 10 is denoted as B),A (a compound having 10 or more and less than 20 is denoted as A)
1.3 nM,174 nM,CC[C@H](C)[C@@H]1NC(=O)[C@H](COC)N(C)C(=O)C[C@@H](C(=O)N(C)C)N(C)C(=O)[C@H](C2CCCC2)N(C)C(=O)C2(CC(C)(C)C2)NC(=O)[C@@H]2C[C@@H](OC3CCC3)CN2C(=O)[C@H](CCc2ccc(Cl)c(Cl)c2)NC(=O)CN(C)C(=O)[C@H](CC2CCC(F)(F)CC2)N2CC/C=C\C[C@@H](C2=O)N(C)C(=O)CN(C2CC2)C1=O [PP2624],A (a compound having 10 or more and less than 20 is denoted as A),A (a compound having 10 or more and less than 20 is denoted as A)
2.6 nM,95.2 nM,CCC(CC)[C@H]1C(=O)N(C)[C@H](C(=O)N(C)C)CC(=O)N(C)[C@@H](COC)C(=O)N[C@@H]([C@@H](C)CC)C(=O)N(C2CC2)CC(=O)N(C)[C@H]2C/C=C\CCN(C2=O)[C@@H](CC2CCC(F)(F)CC2)C(=O)N(C)CC(=O)N[C@@H](CCc2cc(F)c(C(F)(F)F)c(F)c2)C(=O)N2C[C@H](OC3CCCC3)C[C@H]2C(=O)NC2(CC(C)(C)C2)C(=O)N1C [PP2627],A (a compound having 10 or more and less than 20 is denoted as A),A (a compound having 10 or more and less than 20 is denoted as A)
0.9 nM,67.9 nM,CC[C@H](C)[C@@H]1NC(=O)[C@H](COC)N(C)C(=O)C[C@@H](C(=O)N(C)C)N(C)C(=O)[C@H](C2CCCC2)N(C)C(=O)C2(CC(C)(C)C2)NC(=O)[C@@H]2C[C@@H](OC3CCCC3)CN2C(=O)[C@H](CCc2ccc(Cl)c(Cl)c2)NC(=O)CN(C)C(=O)[C@H](Cc2ccc(C)cc2)N2CC/C=C\C[C@@H](C2=O)N(C)C(=O)CN(C2CC2)C1=O [PP2628],A (a compound having 10 or more and less than 20 is denoted as A),A (a compound having 10 or more and less than 20 is denoted as A)
3 nM,190 nM,CC[C@H](C)[C@@H]1NC(=O)[C@H](COC)N(C)C(=O)C[C@@H](C(=O)N(C)C)N(C)C(=O)[C@H](C2CCCC2)N(C)C(=O)C2(CC(C)(C)C2)NC(=O)[C@@H]2C[C@@H](OC3CCCC3)CN2C(=O)[C@H](CCc2cc(F)c(C(F)(F)F)c(F)c2)NC(=O)CN(C)C(=O)[C@H](CC2CCCCC2)N2CC/C=C\C[C@@H](C2=O)N(C)C(=O)CN(C2CC2)C1=O [PP2630],B (a compound having 3 or more and less than 10 is denoted as B),A (a compound having 10 or more and less than 20 is denoted as A)
0.5 nM,56.9 nM,CCC(CC)[C@H]1C(=O)N(C)[C@H](C(=O)N(C)C)CC(=O)N(C)[C@@H](COC)C(=O)N[C@@H]([C@@H](C)CC)C(=O)N(C2CC2)CC(=O)N(C)[C@H]2C/C=C\CCN(C2=O)[C@@H](Cc2ccc(C(F)F)cc2)C(=O)N(C)CC(=O)N[C@@H](CCc2cc(F)c(C(F)(F)F)c(F)c2)C(=O)N2C[C@H](OC3CCC3)C[C@H]2C(=O)NC2(CC(C)(C)C2)C(=O)N1C [PP2631],A (a compound having 10 or more and less than 20 is denoted as A),AA (a compound having 20 or more is denoted as AA)
0.64 nM,29 nM,CCC(CC)[C@H]1C(=O)N(C)[C@H](C(=O)N(C)C)CC(=O)N(C)[C@@H](COC)C(=O)N[C@@H]([C@@H](C)CC)C(=O)N(C2CC2)CC(=O)N(C)[C@H]2C/C=C\CCN(C2=O)[C@@H](Cc2ccc(C(F)F)cc2)C(=O)N(C)CC(=O)N[C@@H](CCc2cc(F)c(C(F)(F)F)c(F)c2)C(=O)N2C[C@H](OC3CCCC3)C[C@H]2C(=O)NC2(CC(C)(C)C2)C(=O)N1C [PP2633],A (a compound having 10 or more and less than 20 is denoted as A),AA (a compound having 20 or more is denoted as AA)

Compound,Kd [2],IC50 [4],HRAS/KRAS (ratio of KD value with respect to GDP-bound HRAS wild-type protein to KD value with respect to KRAS) [1],NRAS/KRAS (ratio of KD value with respect to GDP-bound NRAS wild-type protein to KD value with respect to KRAS) [3]
CCO[C@@H]1C[C@H]2C(=O)NC3(CC(C)(C)C3)C(=O)N(C)[C@@H](C(CC)CC)C(=O)N(C)[C@H](C(=O)N3CCCCC3)CC(=O)N(C)[C@@H](COC)C(=O)N[C@@H]([C@@H](C)CC)C(=O)N(C)CC(=O)N(C)[C@H]3C/C=C\CCN(C3=O)[C@@H](Cc3ccc(C(F)(F)F)cc3)C(=O)N(C)CC(=O)N[C@@H](CCc3ccc(Cl)c(Cl)c3)C(=O)N2C1 [PP2610],1.3 nM,126 nM,A (a compound having 10 or more and less than 20 is denoted as A),AA (a compound having 20 or more is denoted as AA)
CCC(CC)[C@H]1C(=O)N(C)[C@H](C(=O)N2CCCCC2)CC(=O)N(C)[C@@H](COC)C(=O)N[C@@H]([C@@H](C)CC)C(=O)N(C)CC(=O)N(C)[C@H]2C/C=C\CCN(C2=O)[C@@H](Cc2ccc(C(F)(F)F)cc2)C(=O)N(C)CC(=O)N[C@@H](CCc2ccc(Cl)c(Cl)c2)C(=O)N2C[C@H](OC(C)C)C[C@H]2C(=O)NC2(CC(C)(C)C2)C(=O)N1C [PP2612],2.4 nM,199 nM,A (a compound having 10 or more and less than 20 is denoted as A),AA (a compound having 20 or more is denoted as AA)
